Laboratory results as given in publication PMC4805166, “Synthetic Cyclolipopeptides Selective against Microbial, Plant and Animal Cell Targets by Incorporation of D-Amino Acids or Histidine” (PLoS ONE, 2016).
Where “and” joins values, the source holds several entries; their conditions need not be identical. Identical values can stand only once. Like-named read-outs stand apart in the source and are kept apart here. Where a SMILES comes first, the peptide text is derived from it. Side-chain parts run from the residue outwards. [ ]: non-standard residue; d: D form. The star is where a group is joined. Pentanoyl(4-Me) = CC(C)CCC(=O)*; Hexanoyl = CCCCCC(=O)*; Butyryl = CCCC(=O)*

How the values were obtained:
[1] = system: Pseudomonas syringae pv. syringae EPS94; assay type: cell-based; conditions: 48 h
Procedure, shortened: (§1)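 Peptide dilutions (stocks 500–31.1 μM) mixed 1:10 with 10^8 CFU/mL bacterial suspension in TSB. Incubated 25 °C, OD600 read hourly for 48 h, triplicates, repeated twice. MIC: lowest concentration with no growth at end.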

[2] = system: Xanthomonas axonopodis pv. vesicatoria 2133–2; assay type: cell-based; conditions: TSB, 25°C, 48 h, OD 600 nm; tested at 3.1, 6.2, 12.5, 25, 50 μM; three replicates, experiment repeated twice; MIC = lowest concentration with no growth
Procedure, shortened: as §1

[3] = system: Erwinia amylovora PMV6076; test: MIC, in vitro growth inhibition; assay type: cell-based; conditions: TSB, 25°C, 48 h, OD 600 nm; tested at 3.1, 6.2, 12.5, 25, 50 μM; three replicates, experiment repeated twice; MIC = lowest concentration with no growth
Procedure, shortened: as §1

[4] = system: Fusarium oxysporum f. sp. lycopersici FOL 3 race 2; test: MIC, antifungal growth inhibition; assay type: cell-based
Procedure, shortened: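 Microconidia are grown on PDA at 25 °C and adjusted to 10^4 conidia/mL. Peptide stocks of 500, 250, 125, 62.5 and 31.1 µM (stock, not final) are mixed with conidia in double-concentrated PDB with 0.003% chloramphenicol, in triplicate, and incubated at 20 °C. OD600 is read every 2 h for seven days, and MIC is the lowest concentration with no growth at the end.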

[5] = system: X. axonopodis pv. vesicatoria; test: Bactericidal activity (killing assay); assay type: cell-based, Xanthomonas axonopodis pv. vesicatoria; conditions: 5 μM peptide, LB broth, aliquots every 30 min during 3 h, viable counts; triplicates
Description: In a total volume of 5 mL, 4 mL of Luria-Bertani (LB) broth were mixed with 0.5 ml of a suspension of X. axonopodis pv. vesicatoria adjusted to 10^8 CFU mL^-1 and 0.5 mL of the peptide solution at 50 μM (final concentration at 5 μM). Aliquots of 500 μL were removed at 30-min intervals during 3 h and the appropriate dilutions were spread onto LB agar using a spiral plater (Eddy Jet; IUL instruments, Spain). Triplicates were performed and colonies were counted after 48 h of incubation at 25°C with an automatic counter (Flash and Go; IUL instruments, Spain) by incorporating the software CounterMat version 5.0.

[6] = system: E. amylovora, P. syringae pv. syringae, X. axonopodis pv. vesicatoria and F. oxysporum; assay type: cell-based; conditions: for Antimicrobial activity, in words: authors' overall judgement over the pathogens tested
Description: The following plant pathogenic bacterial strains were used: Erwinia amylovora PMV6076 (Institut National de la Recherche Agronomique, Angers, France), Pseudomonas syringae pv. syringae EPS94 (Institut de Tecnologia Agroalimentària, Universitat de Girona, Spain) and Xanthomonas axonopodis pv. vesicatoria 2133–2 (Instituto Valenciano de Investigaciones Agrarias, Valencia, Spain). All bacteria were stored in Luria Bertani (LB) broth supplemented with glycerol (20%) and maintained at -80°C. Bacteria were scrapped from LB agar after growing for 24–48 h at 25°C. The cell material was suspended in sterile water to obtain a suspension of 10^8 CFU mL^-1.
Fusarium oxysporum f. sp. lycopersici FOL 3 race 2 (ATCC 201829, American Type Culture Collection) was used as fungal pathogen. The strain was cultured on potato dextrose agar (PDA) plates (Difco) and microconidia were obtained after growth at 25°C. The concentration of conidia was determined using a hemacytometer and adjusted to 10^4 conidia mL^-1.
Lyophilized peptides were solubilized in sterile Milli-Q water to a final concentration of 1 mM and filter sterilized through a 0.22-μm pore filter. For minimum inhibitory concentration (MIC) assessment, dilutions of the compounds were made to obtain a stock concentration of […]. For antibacterial activity twenty microlitres of each dilution were mixed in a microtiter plate well with 20 μL of the corresponding suspension of the bacterial indicator, 160 μL of Trypticase Soy Broth (TSB) (BioMèrieux, France) to a total volume of 200 μL. For antifungal activity 20 μL of each stock solution were mixed in a microtiter plate well with 80 μL of the corresponding suspension of the fungal pathogen and 100 μL of double concentrated PDB to a total volume of 200 μL containing 0.003% w/v of choramphenicol.
Three replicates for each strain, compound and concentration were used. Microbial growth was determined by optical density measurement at 600 nm (Bioscreen C, Labsystem, Helsinki, Finland). For antibacterial activity microplates were incubated at 25°C with 20 sec shaking before hourly absorbance measurement for 48 h. For antifungal activity microplates were incubated at 20°C with 1 min shaking before absorbance measurement that were done every two hours during seven days. The experiment was repeated twice. The MIC was taken as the lowest compound concentration with no growth at the end of the experiment.

[7] = system: erythrocyte suspensions of horse blood; conditions: horse erythrocytes 5% vol/vol, TRIS buffer pH 7.2, 1 h at 37°C, absorbance 540 nm, relative to melittin 100 μM, ± confidence interval (α = 0.05); for Hemolysis (%) 150 µM: 150 µM peptide; for Hemolysis (%) 250 µM: 250 µM peptide;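 as to all read-outs here: Read-out is hemoglobin release into the supernatant, with a buffer-only blank subtracted as the 0% baseline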
Description: Blood was centrifuged at 6000g for 5 min, washed three times with TRIS buffer (10 mM TRIS, 150 mM NaCl, pH 7.2) and diluted.
Compounds were solubilized in TRIS buffer and mixed with horse erythrocytes and the final concentrations tested were 250 and 150 μM. The mixture was incubated under continuous shaking for 1 h at 37°C. Then, the tubes were centrifuged at 3500g for 10 min, 80 μL aliquots of the supernatant transferred to 100-well microplates (Bioscreen), diluted with 80 μL water, and the absorbance measured at 540 nm (Bioscreen). Complete hemolysis was obtained by the addition of melittin at 100 μM (Sigma-Aldrich Corporation, Madrid, Spain). The percentage of hemolysis (H) was calculated using the equation: H = 100×[(Op−Ob)/(Om−Ob)], where Op was the density for a given compound concentration, Ob for the buffer, and Om for the melittin positive control.

tobacco leaves = test: Phytotoxicity by infiltration of tobacco leaves; assay type: in vivo; conditions: 250 μM, 100 μL infiltrated into mesophyll of tobacco leaves, 48 h after infiltration; at least three inoculations
Description: Peptide solutions of 50, 100, 150 and 250 μM were infiltrated (100 μL) into the mesophylls of fully expanded tobacco leaves. Six independent inoculations were carried out in a single leaf, and at least three independent inoculations were performed per peptide and concentration randomly distributed in diferent leaves and plants. Control infiltrations with water (negative control) or mellitin (positive control) at the same molar concentration were performed. The appearance of symptoms on the leaves was followed for 48 h after infiltration and measured as a lesion diameter.

[8] = PDB with 0.003% chloramphenicol, 20°C, seven days, OD 600 nm, tested at 3.1, 6.2, 12.5, 25, 50 μM, three replicates, repeated twice

Row | Compound | MIC Pss [1] [µM] | MIC Xav [2] | MIC Ea [3] [µM] | MIC Fo [4, 8] [µM] | Bactericidal activity (kinetics of survival) [5] | MIC against three pathogens ([6]; three of the four pathogens tested) [µM] | Hemolysis (%) 150 µM [7] [%] | Hemolysis (%) 250 µM [7] [%] | Antimicrobial activity, in words [6] | Phytotoxicity, size of the lesions (necrosis diameter) (tobacco leaves) | MIC Fo [4] [µM]
1 | CCCC(=O)NCCCC[C@@H]1NC(=O)[C@H](CCCCN)NC(=O)[C@H](CC(C)C)NC(=O)[C@H](CCCCN)NC(=O)[C@H](CCCCN)NC(=O)[C@H](CCC(N)=O)NC(=O)[C@H](CC(C)C)NC(=O)[C@H](CCCCN)NC(=O)[C@H](CCCCN)NC(=O)[C@H](Cc2ccccc2)NC1=O [BPC500, c(KKLKK(CO-C3H7)FKKLQ)] (cyclo(FKKLQKKLKK(Butyryl))) | 6.2 to 12.5 | <3.1 µM | 12.5 to 25 | <3.1 | bactericidal activity | < 12.5 | 28 ± 5 | 38 ± 4 | – | – | –
2 | CC(C)CCC(=O)NCCCC[C@H]1NC(=O)[C@H](CCCCN)NC(=O)[C@H](CC(C)C)NC(=O)[C@H](CCCCN)NC(=O)[C@H](CCCCN)NC(=O)[C@H](CCC(N)=O)NC(=O)[C@H](CC(C)C)NC(=O)[C@H](CCCCN)NC(=O)[C@H](CCCCN)NC(=O)[C@@H](Cc2ccccc2)NC1=O [BPC634, c(KKLKk(CO-isoC5H11)fKKLQ)] (cyclo(KKLK[dK](Pentanoyl(4-Me))[dF]KKLQ)) | 12.5 to 25 | 25 to 50 µM | >50 | 6.2 to 12.5 | – | – | 7 ± 1 | 17 ± 8 | low active | – | –
3 | CCCCCC(=O)N[C@@H](CCCCN)C(=O)N[C@@H](CC(C)C)C(=O)NCCCC[C@@H]1NC(=O)[C@H](CCCCN)NC(=O)[C@H](CC(C)C)NC(=O)[C@H](CCCCN)NC(=O)[C@H](CCCCN)NC(=O)[C@H](CCC(N)=O)NC(=O)[C@H](CC(C)C)NC(=O)[C@H](CCCCN)NC(=O)[C@H](CCCCN)NC(=O)[C@H](Cc2c[nH]cn2)NC1=O [BPC676, c(KKLKK(LK-CO-nC5H11)HKKLQ)] (cyclo(HKKLQKKLKK([Leu-Lys-Hexanoyl]))) | 12.5 to 25 | 6.2 to 12.5 µM | 25 to 50 | 3.1 to 6.2 | bactericidal activity | – | 3 ± 0.3 | – | – | – | –
4 | CCCCCC(=O)NCCCC[C@@H]1NC(=O)[C@H](CCC(N)=O)NC(=O)[C@H](CC(C)C)NC(=O)[C@H](CCCCN)NC(=O)[C@H](CCCCN)NC(=O)[C@@H](Cc2ccccc2)NC(=O)[C@H](CCCCN)NC(=O)[C@H](CCCCN)NC(=O)[C@H](CC(C)C)NC(=O)[C@H](CCCCN)NC1=O [BPC686, c(K(CO-nC5H11)KLKKfKKLQ)] (cyclo(K(Hexanoyl)KLKK[dF]KKLQ)) | 12.5 to 25 | 6.2 to 12.5 µM | 25 to 50 | 12.5 to 25 | bactericidal activity | – | 10 ± 0.2 | 14 ± 0.4 | – | – | –
5 | CCCCCC(=O)NCCCC[C@@H]1NC(=O)[C@H](CCC(N)=O)NC(=O)[C@H](CC(C)C)NC(=O)[C@H](CCCCN)NC(=O)[C@H](CCCCN)NC(=O)[C@H](Cc2c[nH]cn2)NC(=O)[C@H](CCCCN)NC(=O)[C@H](CCCCN)NC(=O)[C@H](CC(C)C)NC(=O)[C@H](CCCCN)NC1=O [BPC688] (cyclo(HKKLQK(Hexanoyl)KLKK)) | 25 to 50 | 25 to 50 µM | >50 | 12.5 to 25 | – | – | 1 ± 2 | 1 ± 0.2 | – | 0–0.38 cm | –
6 | CCCC(=O)NCCCC[C@H]1NC(=O)[C@H](CCC(N)=O)NC(=O)[C@H](CC(C)C)NC(=O)[C@H](CCCCN)NC(=O)[C@H](CCCCN)NC(=O)[C@H](Cc2ccccc2)NC(=O)[C@H](CCCCN)NC(=O)[C@H](CCCCN)NC(=O)[C@H](CC(C)C)NC(=O)[C@H](CCCCN)NC1=O [BPC706] (cyclo(FKKLQ[dK](Butyryl)KLKK)) | 6.2 to 12.5 | 3.1 to 12.5 µM and 6.2 to 12.5 µM | 25 to 50 | 3.1 to 6.2 | – | – | 35 ± 3 | 46 ± 3 | – | 0–0.38 cm | 3.1 to 6.2
7 | CCCC(=O)NCCCC[C@@H]1NC(=O)[C@H](CCCCN)NC(=O)[C@H](CCC(N)=O)NC(=O)[C@H](CC(C)C)NC(=O)[C@H](CCCCN)NC(=O)[C@H](CCCCN)NC(=O)[C@H](Cc2ccccc2)NC(=O)[C@H](CCCCN)NC(=O)[C@H](CCCCN)NC(=O)[C@H](CC(C)C)NC1=O [BPC708] (cyclo(FKKLQKK(Butyryl)LKK)) | 12.5 to 25 | 6.2 to 12.5 µM | 25 to 50 | 3.1 to 6.2 | – | – | 2 ± 0.5 | 3 ± 1 | active | – | –
8 | CCCC(=O)NCCCC[C@@H]1NC(=O)[C@H](CCCCN)NC(=O)[C@H](CCC(N)=O)NC(=O)[C@H](CC(C)C)NC(=O)[C@H](CCCCN)NC(=O)[C@H](CCCCN)NC(=O)[C@@H](Cc2ccccc2)NC(=O)[C@H](CCCCN)NC(=O)[C@H](CCCCN)NC(=O)[C@H](CC(C)C)NC1=O [BPC714, c(KK(CO-C3H7)LKKfKKLQ)] (cyclo(KK(Butyryl)LKK[dF]KKLQ)) | 25 to 50 | 12.5 to 25 µM | 25 to 50 | 6.2 to 12.5 | bactericidal activity | – | 3 ± 1 | 3 ± 0.5 | – | – | –
9 | CCCC(=O)N[C@@H](CCCCN)C(=O)N[C@@H](CC(C)C)C(=O)NCCCC[C@@H]1NC(=O)[C@H](CCCCN)NC(=O)[C@H](CC(C)C)NC(=O)[C@H](CCCCN)NC(=O)[C@H](CCCCN)NC(=O)[C@H](CCC(N)=O)NC(=O)[C@H](CC(C)C)NC(=O)[C@H](CCCCN)NC(=O)[C@H](CCCCN)NC(=O)[C@H](Cc2c[nH]cn2)NC1=O [BPC728, c(KKLKK(LK-CO-C3H7)HKKLQ)] (cyclo(HKKLQKKLKK([Leu-Lys-Butyryl]))) | 12.5 to 25 | 6.2 to 12.5 µM | >50 | <3.1 | bactericidal activity | – | 0 | – | – | – | –
10 | melittin [mellitin, reference compound] | – | – | – | – | – | – | – | – | – | around 2 cm | –
